{"source": "patent US4795812A", "about": "“4-substituted-6-aryl-pyrimidine compounds” (The Upjohn Company, priority 1986, dated 1989)", "key": {"Ps. aeruginosa": {"system": "Ps. aeruginosa", "assay": "In vitro disk plate assay, Ps. aeruginosa", "type": "cell-based", "settings": "medium B (Nutrient Agar); 1 mg/ml in distilled water, 1/2 inch disk, 18 hours", "description": "(§1) The antibacterial spectrum of 4-(1-azindinyl)-6-phenyl-2-pyrimidinamine was determined in an in vitro disk plate assay. The assay procedure is as follows:\n(§2) A solution of 4-(1-aziridinyl)-6-phenyl-2-pyrimidinamine was prepared at 1 mg/ml in distilled water. Paper assay disks (1/2 inch) were dripped into the solution and spotted on seeded agar trays."}, "K. pneumoniae": {"system": "K. pneumoniae", "assay": "In vitro disk plate assay, K. pneumoniae", "type": "cell-based", "settings": "medium A (Streptomycin Assay Agar); 1 mg/ml in distilled water, 1/2 inch disk, 18 hours", "description": "as §1, §2"}, "P388 leukemia": {"system": "P388 leukemia", "assay": "In vivo P-388 mouse leukemia test (i.p.)", "settings": "for % ILS (% increase in life span of treated compared to control animals) / Weight Change: daily × 9, i.p.; for % ILS (% increase in life span of treated compared to control animals): Klucel suspension; for Weight Change: between days 1 and 5 after tumor inoculation", "description": "(§3) The P-388 mouse leukemia test is described in detail in a publication by G. L. Neil, et al, Cancer Treatment Reports 63, 1971-1978 (1979).\n(§4) ^a mg/kg/day, daily × 9, i.p., administered as a Klucel\n(§5) ^b % increase in life span of treated compared to control animals.\n(§6) ^c g/mouse between days 1 and 5 after tumor inoculation.\n(§7) The NCI-designated criteria of significant activity for synthetic agents in these 3 systems are: for P388, 20% ILS; L1210 and B16, 25% ILS."}, "S. pastorianus": {"system": "S. pastorianus", "assay": "In vitro disk plate assay, S. pastorianus", "type": "cell-based", "settings": "medium G (Gray's Medium); 1 mg/ml in distilled water, 1/2 inch disk, 18 hours", "description": "as §1, §2"}, "E. coli": {"system": "E. coli", "assay": "In vitro disk plate assay, E. coli", "type": "cell-based", "settings": "1 mg/ml in distilled water, 1/2 inch disk, 18 hours", "description": "as §1, §2"}, "M. avium": {"system": "M. avium", "assay": "In vitro disk plate assay, M. avium", "type": "cell-based", "settings": "medium D (Brain Heart Infusion Agar); 1 mg/ml in distilled water, 1/2 inch disk, 18 hours", "description": "as §1, §2"}, "B. fragilis": {"system": "B. fragilis", "assay": "In vitro disk plate assay, B. fragilis", "type": "cell-based", "settings": "medium H (Schaedler Agar); 1 mg/ml in distilled water, 1/2 inch disk, 18 hours", "description": "as §1, §2"}, "L-1210 leukemia": {"system": "L-1210 leukemia", "assay": "In vivo L-1210 leukemia test in mice (i.p.)", "parameters": "species or system mouse", "settings": "for % ILS (% increase in life span of treated compared to control animals) / Weight Change: i.p.-L1210, daily × 9, i.p.; for % ILS (% increase in life span of treated compared to control animals): Klucel suspension; for Weight Change: between days 1 and 5 after tumor inoculation", "description": "as §3, §4, §5, §6, §7"}, "P. vulgaris": {"system": "P. vulgaris", "assay": "In vitro disk plate assay, Proteus vulgaris", "type": "cell-based", "settings": "medium B (Nutrient Agar); 1 mg/ml in distilled water, 1/2 inch disk, 18 hours", "description": "as §1, §2"}, "S. pyogenes": {"system": "S. pyogenes", "assay": "In vitro disk plate assay, S. pyogenes", "type": "cell-based, Streptococcus pyogenes", "settings": "medium D (Brain Heart Infusion Agar); 1 mg/ml in distilled water, 1/2 inch disk, 18 hours", "description": "as §1, §2"}, "S. schottmuelleri": {"system": "S. schottmuelleri", "assay": "In vitro disk plate assay, S. schottmuelleri", "type": "cell-based", "settings": "medium B (Nutrient Agar); 1 mg/ml in distilled water, 1/2 inch disk, 18 hours", "description": "as §1, §2"}, "S. lutea": {"system": "S. lutea", "assay": "In vitro disk plate assay, S. lutea", "type": "cell-based", "settings": "1 mg/ml in distilled water, 1/2 inch disk, 18 hours", "description": "as §1, §2"}, "[1]": {"system": "Rhodopseudomonas spheroides", "assay": "In vitro disk plate assay, Rhodopseudomonas spheroides", "type": "cell-based", "settings": "medium F (Plate Count Medium); 1 mg/ml in distilled water, 1/2 inch disk, 18 hours", "description": "as §1, §2"}, "[2]": {"system": "L-1210 mouse leukemia cells", "assay": "L-1210 tube dilution assay, inhibition of mouse leukemia cell growth in vitro", "type": "cell-based", "settings": "in vitro", "description": "ID50 and ID90 refer to the concentration of compound needed to inhibit cell growth by 50 and 90 percent, respectively."}, "B-16 melanoma": {"system": "B-16 melanoma", "assay": "In vivo B-16 melanoma test in mice (i.p.)", "parameters": "species or system mouse", "settings": "for % ILS (% increase in life span of treated compared to control animals) / Weight Change: i.p.-B16, daily × 9, i.p.; for % ILS (% increase in life span of treated compared to control animals): Klucel suspension; for Weight Change: between days 1 and 5 after tumor inoculation", "description": "as §3, §4, §5, §6, §7"}, "S. aureus": {"system": "S. aureus", "assay": "In vitro disk plate assay, S. aureus", "type": "cell-based", "settings": "medium B (Nutrient Agar); 1 mg/ml in distilled water, 1/2 inch disk, 18 hours", "description": "as §1, §2"}, "[3]": {"settings": "i.p.-P388, first series, 5 mg/kg/day"}, "[4]": {"settings": "i.p.-P388, first series, 10 mg/kg/day"}, "[5]": {"settings": "i.p.-P388, first series, 20 mg/kg/day"}, "[6]": {"settings": "i.p.-P388, first series, 40 mg/kg/day"}, "[7]": {"settings": "i.p.-P388, second series, 5 mg/kg/day"}, "[8]": {"settings": "i.p.-P388, second series, 10 mg/kg/day"}, "[9]": {"settings": "i.p.-P388, second series, 20 mg/kg/day"}, "[10]": {"settings": "i.p.-P388, second series, 40 mg/kg/day"}}}
{"smiles": "Nc1nc(-c2ccccc2)cc(N2CC2)n1", "note": "[Example 2, 4-(1-aziridyl)-6-phenyl-2-pyrimidinamine]", "values": [{"measurement": "Zone of Inhibition", "setting": "Ps. aeruginosa", "result": 0, "unit": "mm"}, {"measurement": "Zone of Inhibition", "setting": "K. pneumoniae", "result": 0, "unit": "mm"}, {"measurement": "% ILS (% increase in life span of treated compared to control animals)", "setting": "P388 leukemia; [3]", "result": 10, "unit": "%"}, {"measurement": "Weight Change", "setting": "P388 leukemia; [3]", "result": "+1.8 g/mouse"}, {"measurement": "% ILS (% increase in life span of treated compared to control animals)", "setting": "P388 leukemia; [4]", "result": 11, "unit": "%"}, {"measurement": "Weight Change", "setting": "P388 leukemia; [4]", "result": "+2.1 g/mouse"}, {"measurement": "% ILS (% increase in life span of treated compared to control animals)", "setting": "P388 leukemia; [5]", "result": 25, "unit": "%"}, {"measurement": "Weight Change", "setting": "P388 leukemia; [5]", "result": -0.7, "unit": "g/mouse"}, {"measurement": "% ILS (% increase in life span of treated compared to control animals)", "setting": "P388 leukemia; [6]", "result": 47, "unit": "%"}, {"measurement": "Weight Change", "setting": "P388 leukemia; [6]", "result": -3.8, "unit": "g/mouse"}, {"measurement": "% ILS (% increase in life span of treated compared to control animals)", "setting": "P388 leukemia; [7]", "result": 14, "unit": "%"}, {"measurement": "Weight Change", "setting": "P388 leukemia; [7]", "result": "+1.8 g/mouse"}, {"measurement": "% ILS (% increase in life span of treated compared to control animals)", "setting": "P388 leukemia; [8]", "result": 11, "unit": "%"}, {"measurement": "Weight Change", "setting": "P388 leukemia; [8]", "result": "+2.1 g/mouse"}, {"measurement": "% ILS (% increase in life span of treated compared to control animals)", "setting": "P388 leukemia; [9]", "result": 17, "unit": "%"}, {"measurement": "Weight Change", "setting": "P388 leukemia; [9]", "result": "+0.5 g/mouse"}, {"measurement": "% ILS (% increase in life span of treated compared to control animals)", "setting": "P388 leukemia; [10]", "result": 26, "unit": "%"}, {"measurement": "Weight Change", "setting": "P388 leukemia; [10]", "result": -2.0, "unit": "g/mouse"}, {"measurement": "in vivo activity against P388 leukemia (in words)", "setting": "P388 leukemia; mice", "result": "demonstrated activity in vivo against P388 and L-1210 leukemias in mice"}, {"measurement": "Zone of Inhibition", "setting": "S. pastorianus", "result": 0, "unit": "mm"}, {"measurement": "Zone of Inhibition", "setting": "E. coli; medium B (Nutrient Agar)", "result": 0, "unit": "mm"}, {"measurement": "Zone of Inhibition", "setting": "E. coli; medium E (Synthetic Medium)", "result": 0, "unit": "mm"}, {"measurement": "Zone of Inhibition", "setting": "M. avium", "result": 0, "unit": "mm"}, {"measurement": "Zone of Inhibition", "setting": "B. fragilis", "result": 23, "unit": "mm"}, {"measurement": "% ILS (% increase in life span of treated compared to control animals)", "setting": "L-1210 leukemia; 5 mg/kg/day", "result": 0, "unit": "%"}, {"measurement": "Weight Change", "setting": "L-1210 leukemia; 5 mg/kg/day", "result": "+1.2 g/mouse"}, {"measurement": "% ILS (% increase in life span of treated compared to control animals)", "setting": "L-1210 leukemia; 10 mg/kg/day", "result": 0, "unit": "%"}, {"measurement": "Weight Change", "setting": "L-1210 leukemia; 10 mg/kg/day", "result": "+1.5 g/mouse"}, {"measurement": "% ILS (% increase in life span of treated compared to control animals)", "setting": "L-1210 leukemia; 20 mg/kg/day", "result": 9, "unit": "%"}, {"measurement": "Weight Change", "setting": "L-1210 leukemia; 20 mg/kg/day", "result": "+0.6 g/mouse"}, {"measurement": "% ILS (% increase in life span of treated compared to control animals)", "setting": "L-1210 leukemia; 40 mg/kg/day", "result": 24, "unit": "%"}, {"measurement": "Weight Change", "setting": "L-1210 leukemia; 40 mg/kg/day", "result": -2.4, "unit": "g/mouse"}, {"measurement": "in vivo activity against L-1210 leukemia (in words)", "setting": "L-1210 leukemia; mice", "result": "demonstrated activity in vivo against P388 and L-1210 leukemias in mice"}, {"measurement": "Zone of Inhibition", "setting": "P. vulgaris", "result": 0, "unit": "mm"}, {"measurement": "Zone of Inhibition", "setting": "S. pyogenes", "result": 21, "unit": "mm"}, {"measurement": "Zone of Inhibition", "setting": "S. schottmuelleri", "result": 0, "unit": "mm"}, {"measurement": "Zone of Inhibition", "setting": "S. lutea; S. lutea+, medium B (Nutrient Agar)", "result": 0, "unit": "mm"}, {"measurement": "Zone of Inhibition", "setting": "S. lutea; S. luteau, medium C (PenAssay Seed Agar)", "result": 0, "unit": "mm"}, {"measurement": "Zone of Inhibition", "setting": "[1]", "result": 18, "unit": "mm"}, {"measurement": "inhibition of growth of L-1210 cells (in words)", "setting": "[2]", "result": "inhibit the growth of L-1210 mouse leukemia cells in vitro"}, {"measurement": "% ILS (% increase in life span of treated compared to control animals)", "setting": "B-16 melanoma; 6.3 mg/kg/day", "result": 2, "unit": "%"}, {"measurement": "Weight Change", "setting": "B-16 melanoma; 6.3 mg/kg/day", "result": "+1.2 g/mouse"}, {"measurement": "% ILS (% increase in life span of treated compared to control animals)", "setting": "B-16 melanoma; 12.5 mg/kg/day", "result": 4, "unit": "%"}, {"measurement": "Weight Change", "setting": "B-16 melanoma; 12.5 mg/kg/day", "result": "+0.3 g/mouse"}, {"measurement": "% ILS (% increase in life span of treated compared to control animals)", "setting": "B-16 melanoma; 25 mg/kg/day", "result": 11, "unit": "%"}, {"measurement": "Weight Change", "setting": "B-16 melanoma; 25 mg/kg/day", "result": -0.5, "unit": "g/mouse"}, {"measurement": "% ILS (% increase in life span of treated compared to control animals)", "setting": "B-16 melanoma; 50 mg/kg/day", "result": 7, "unit": "%"}, {"measurement": "Weight Change", "setting": "B-16 melanoma; 50 mg/kg/day", "result": -3.0, "unit": "g/mouse"}, {"measurement": "in vivo activity against B-16 melanoma (in words)", "setting": "B-16 melanoma; mice", "result": "no in vivo activity in mice against B-16 melanoma"}, {"measurement": "Zone of Inhibition", "setting": "S. aureus", "result": 0, "unit": "mm"}]}
